We go through five compounds from patent US11000033B2, “Ketone or oxime compound, and herbicide” (NISSAN CHEMICAL CORPORATION, priority 2014, dated 2021).

Common to all, as to type: in vivo
The test system of data set [1] is rice plant. Put plainly: Test Example 5: effect on crop by foliage application, plastic box (symbol b). The note with it: 320 g/ha, 3 weeks after application. In short, it runs like this: (§1)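 Seeds were sown in spots in sterilized diluvial soil held in a plastic box 21 cm × 13 cm × 7 cm deep, covered with about 1.5 cm of soil, and grown in a greenhouse at 25° C. to 30° C.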

The subject of data set [2] is Amaranthus retroflexus. Put plainly: Test Example 5: herbicidal effect by foliage application, plastic box (symbol N). The note with it: 320 g/ha, 3 weeks after application. The method, boiled down: (§2)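 Visual herbicidal score, taken three weeks post-application, of seedlings sprayed on the foliage with water-diluted emulsion at a predetermined amount; plants were 14 days old, greenhouse-raised at 25° C. to 30° C.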

Data set [3] has as its system wheat. Put plainly: Test Example 5: effect on crop by foliage application, plastic box (symbol e). The conditions noted are these: 320 g/ha, 3 weeks after application. In short, it runs like this:
as §1

Data set [4] concerns soybean. Put plainly: Test Example 5: effect on crop by foliage application, plastic box (symbol d). The note with it: 320 g/ha, 3 weeks after application. In short, it runs like this: as §1
For data set [5], the system named is Scirpus juncoides. Put plainly: Test Example 1: herbicidal activity, application before weed generation in submerged conditions (symbol B). The note with it: application herbicide amount 320 g/ha. The method, boiled down: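 Weeds are sown into submerged alluvial soil alongside transplanted 2.5-leaf rice, and the compound, as an emulsion diluted to a set rate, is applied onto the water before emergence. Rating on the 0–5 herbicidal-ratio scale follows 3 weeks of greenhouse growth at 25–30 °C.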

Data set [6] concerns Scirpus juncoides. Put plainly: Test Example 2: herbicidal activity, application during weed generation in submerged conditions (symbol B). The note with it: Table 23; application herbicide amount 320 g/ha; grade 0-5 by criteria of Test Example 1. The method, boiled down: (§3)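 Alluvial soil in pots was flooded to a 4 cm water depth and sown with a mix of the three weed species, then grown in a greenhouse at 25° C. to 30° C. At the one- to two-leaf stage, an emulsifiable formulation diluted in water to a set dose was applied to the water surface. Effects were scored visually 3 weeks later.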

Data set [7] concerns Veronica persica. Put plainly: Test Example 5: herbicidal effect by foliage application, plastic box (symbol R). The conditions noted are these: 320 g/ha, 3 weeks after application. The method, boiled down:
as §2

Data set [8] deals with Echinochloa oryzacola Vasing. Put plainly: Test Example 2: herbicidal activity, application during weed generation in submerged conditions (symbol A). The note with it: Table 23; application herbicide amount 320 g/ha; grade 0-5 by criteria of Test Example 1. The method, boiled down:
as §3

Data set [9] has as its system Stellaria media. Put plainly: Test Example 4: herbicidal effect by soil treatment (symbol P). The conditions noted are these: application herbicide amount 320 g/ha. The method, boiled down: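 Seeds were sown in sterilized diluvial soil, covered with about 1.5 cm of soil, and the soil surface was sprayed with a water-diluted emulsion of the compound at a predetermined rate. Plants grew in a greenhouse at 25° C. to 30° C.; effects were scored visually 3 weeks after application.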

Data set [10] deals with Cyperus difformis. Put plainly: Test Example 3: herbicidal effect by foliage application, Wagner pot (symbol E). The note with it: application herbicide amount 320 g/ha. The method, boiled down: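 Weeds and rice were sown in alluvial soil under 0.1–0.5 cm of standing water and grown for 14 days in a 25–30 °C greenhouse. An emulsion of the compound, diluted in water to a set dose, was sprayed evenly onto the foliage. Effect was scored against fixed criteria 3 weeks after treatment.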

Data set [11] concerns corn. Put plainly: Test Example 4: effect on crop by soil treatment (symbol c). The conditions noted are these: application herbicide amount 320 g/ha. In short, it runs like this: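 Greenhouse culture at 25° C. to 30° C. followed sowing of seed in spots on sterilized diluvial soil with a soil cover close to 1.5 cm thick.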

For the compound `CON=C(C)CC1CC(O)=C(c2c(C)cc(-c3ccc(OC(F)(F)F)cc3)cc2C)C1=O` (mixture of isomers) [6-056], the “b: directly sowed rice plant, effect on crop (criteria of Test Example 1)” value (shortened to “b: directly sowed rice plant, effect”) in data set [1] is 2 (Herbicidal ratio of 20% or higher and lower than 40%). Further, the “N: Amaranthus retroflexus, herbicidal effect (criteria of Test Example 1)” value (“N: Amaranthus retroflexus” below) in data set [2] is on record as 0 (Herbicidal ratio of 5% or lower (almost no effect)). Further, the “e: wheat, effect on crop (criteria of Test Example 1)” value (shortened to “e: wheat, effect on crop”) in [3] is given as 0 (Herbicidal ratio of 5% or lower (almost no effect)). In addition, the “d: soybean, effect on crop (criteria of Test Example 1)” value (“d: soybean, effect on crop” below) in data set [4] is 0 (Herbicidal ratio of 5% or lower (almost no effect)). The “Herbicidal effect grade, B: Scirpus juncoides” value (“Herbicidal effect grade, B” below) in data set [5] and in data set [6] was 0 (Herbicidal ratio of 5% or lower (almost no effect)) throughout. In addition, the “R: Veronica persica, herbicidal effect (criteria of Test Example 1)” value (“R: Veronica persica, herbicidal effect” below) in [7] is given as 0 (Herbicidal ratio of 5% or lower (almost no effect)). Moreover, in data set [8], the “Herbicidal effect grade, A: Echinochloa oryzacola Vasing.” value was 1 (Herbicidal ratio of 5% or higher and lower than 20%). The “P: Stellaria media, herbicidal effect grade” value in [9] was 0 (Herbicidal ratio of 5% or lower (almost no effect)). Further, the “herbicidal effect on E, grade 0-5” value in [10] was 3 (Herbicidal ratio of 40% or higher and lower than 70%). Also, the “c: corn, effect on crop grade” value in data set [11] is 0 (Herbicidal ratio of 5% or lower (almost no effect)).
As for `CC(=O)CC1CC(O)=C(c2c(C)cc(-c3ccc(C)cc3)cc2C)C1=O` (stereo not shown) [7-007], the “b: directly sowed rice plant, effect” value in data set [1] was 5 (Herbicidal ratio of 90% or more (almost completely withered)). Also, in data set [2], the “N: Amaranthus retroflexus” value is listed as 0 (Herbicidal ratio of 5% or lower (almost no effect)). In addition, in data set [3], the “e: wheat, effect on crop” value was 2 (Herbicidal ratio of 20% or higher and lower than 40%). The “d: soybean, effect on crop” value in data set [4] is 0 (Herbicidal ratio of 5% or lower (almost no effect)). Further, the “Herbicidal effect grade, B” value was 1 (Herbicidal ratio of 5% or higher and lower than 20%) in [5]; 0 (Herbicidal ratio of 5% or lower (almost no effect)) in data set [6]. Further, in data set [7], the “R: Veronica persica, herbicidal effect” value was 0 (Herbicidal ratio of 5% or lower (almost no effect)). The “Herbicidal effect grade, A: Echinochloa oryzacola Vasing.” value in data set [8] is listed as 5 (Herbicidal ratio of 90% or more (almost completely withered)). For the same compound, in data set [9], the “Herbicidal effect grade, P: Stellaria media” value (“Herbicidal effect grade, P” below) was 0 (Herbicidal ratio of 5% or lower (almost no effect)). Also, the “herbicidal effect on E, grade 0-5” value in data set [10] is 4 (Herbicidal ratio of 70% or higher and lower than 90%). The “Effect on crop grade, c: corn” value in [11] was 3 (Herbicidal ratio of 40% or higher and lower than 70%).
As for `CC(=O)CC1CC(O)=C(c2c(C)cc(-c3ccccn3)cc2C)C1=O` (stereo not shown) [7-012], the “b: directly sowed rice plant, effect” value in data set [1] is recorded as 5 (Herbicidal ratio of 90% or more (almost completely withered)). Besides, in data set [2], the “N: Amaranthus retroflexus” value is listed as 0 (Herbicidal ratio of 5% or lower (almost no effect)). Besides, the “e: wheat, effect on crop” value in data set [3] was 1 (Herbicidal ratio of 5% or higher and lower than 20%). In [4], the “d: soybean, effect on crop” value is 2 (Herbicidal ratio of 20% or higher and lower than 40%). The “Herbicidal effect grade, B” value in data set [5] and in [6] was 0 (Herbicidal ratio of 5% or lower (almost no effect)) each time. In addition, in data set [7], the “R: Veronica persica, herbicidal effect” value is 2 (Herbicidal ratio of 20% or higher and lower than 40%). Moreover, in data set [8], the “Herbicidal effect grade, A: Echinochloa oryzacola Vasing.” value was 3 (Herbicidal ratio of 40% or higher and lower than 70%). Moreover, in data set [9], the “Herbicidal effect grade, P” value is on record as 0 (Herbicidal ratio of 5% or lower (almost no effect)). The “herbicidal effect on E, grade 0-5” value in [10] was 4 (Herbicidal ratio of 70% or higher and lower than 90%). For the same compound, the “Effect on crop grade, c: corn” value in [11] is 0 (Herbicidal ratio of 5% or lower (almost no effect)).
With `CON=C(C)CC1CC(OC(=O)C(C)CSC)=C(c2c(C)cc(-c3ccc(Cl)cc3)cc2C)C1=O` (stereo not shown) [6-086], the “b: directly sowed rice plant, effect” value in data set [1] is recorded as 5 (Herbicidal ratio of 90% or more (almost completely withered)). The “N: Amaranthus retroflexus” value in [2] is reported as 0 (Herbicidal ratio of 5% or lower (almost no effect)). Further, the “e: wheat, effect on crop” value in data set [3] is 5 (Herbicidal ratio of 90% or more (almost completely withered)). Also, the “d: soybean, effect on crop” value in [4] is listed as 5 (Herbicidal ratio of 90% or more (almost completely withered)). Also, the “Herbicidal effect grade, B” value in data set [5] was 2 (Herbicidal ratio of 20% or higher and lower than 40%); in data set [6], 4 (Herbicidal ratio of 70% or higher and lower than 90%). Besides, the “R: Veronica persica, herbicidal effect” value in data set [7] is 5 (Herbicidal ratio of 90% or more (almost completely withered)). In addition, the “Herbicidal effect grade, A: Echinochloa oryzacola Vasing.” value in data set [8] is 4 (Herbicidal ratio of 70% or higher and lower than 90%). Also, the “Herbicidal effect grade, P” value in data set [9] was 4 (Herbicidal ratio of 70% or higher and lower than 90%). In [10], the “herbicidal effect on E, grade 0-5” value is listed as 5 (Herbicidal ratio of 90% or more (almost completely withered)). Also, the “Effect on crop grade, c: corn” value in [11] was 0 (Herbicidal ratio of 5% or lower (almost no effect)).
Take `CON=C(C)CC1CC(OCOC(=O)c2ccccc2)=C(c2c(C)cc(-c3ccc(Cl)cc3)cc2C)C1=O` (stereo not shown) [6-083]: in data set [1], the “b: directly sowed rice plant, effect” value is on record as 5 (Herbicidal ratio of 90% or more (almost completely withered)). The “N: Amaranthus retroflexus” value in data set [2] is 3 (Herbicidal ratio of 40% or higher and lower than 70%). Besides, the “e: wheat, effect on crop” value in data set [3] was 4 (Herbicidal ratio of 70% or higher and lower than 90%). Further, the “d: soybean, effect on crop” value in data set [4] is 0 (Herbicidal ratio of 5% or lower (almost no effect)). For the same compound, the “Herbicidal effect grade, B” value in [5] was 4 (Herbicidal ratio of 70% or higher and lower than 90%); in data set [6] it was 3 (Herbicidal ratio of 40% or higher and lower than 70%). The “R: Veronica persica, herbicidal effect” value in data set [7] was 4 (Herbicidal ratio of 70% or higher and lower than 90%). Further, the “Herbicidal effect grade, A: Echinochloa oryzacola Vasing.” value in [8] is given as 5 (Herbicidal ratio of 90% or more (almost completely withered)). In addition, the “P: Stellaria media, herbicidal effect grade” value in data set [9] is recorded as 0 (Herbicidal ratio of 5% or lower (almost no effect)). Also, the “herbicidal effect on E, grade 0-5” value in data set [10] is recorded as 5 (Herbicidal ratio of 90% or more (almost completely withered)). The “c: corn, effect on crop grade” value in [11] is given as 0 (Herbicidal ratio of 5% or lower (almost no effect)).
